Measurements published in patent publication US20240425482A1, “PYRROLIDINE DERIVATIVES AS DDRS INHIBITORS” (CHIESI FARMACEUTICI S.P.A., priority 2021, published 2024).

Experiments:
[1] = biological target: DDR2 (Homo sapiens (Human), UniProt Q16832); assay: DDR2 LanthaScreen Europium Kinase Binding assay; conditions: binding; 5 nM DDR2, 10 nM Kinase Tracer 178, 1 hour at rt; Ki from IC50 by Cheng-Prusoff; read-out: Ki DDR2
Procedure: (§1) DDR1 and DDR2 binding assays were performed using Life Technologies LanthaScreen™ Europium Kinase Binding assay. The compounds were incubated with 5 nM DDR1 (Carna Biosciences) or 5 nM DDR2 (Life Technologies) for 1 hour at rt in white 384-well OptiPlate (PerkinElmer), containing 20 nM or 10 nM Kinase Tracer 178 respectively and 2 nM Europium labelled anti-GST antibody (Life Technologies) in assay buffer (50 mM HEPES pH 7.5, 10 mM MgCI2, 1 mM EGTA and 0.01% BRIJ35). The ratio of fluorescence emission 665 nm/615 nm after excitation at 340 nm was obtained using the Tecan Spark 20M plate reader. IC50 values were determined in GraphPad Prism 7.0 software, using 4 parameter model: log(inhibitor) vs. response. IC50 values were converted in Ki using the Cheng-Prusoff equation (Ki=IC50/(1+[Tracer]/Kd).
(§2) Compounds C1 and C2 were tested in the same binding assay described above.

[2] = biological target: DDR1 (Homo sapiens (Human), UniProt Q08345); assay: DDR1 LanthaScreen Europium Kinase Binding assay; conditions: binding; 5 nM DDR1, 20 nM Kinase Tracer 178, 1 hour at rt; Ki from IC50 by Cheng-Prusoff; read-out: Ki DDR1
Chain of DDR1 (Q08345 19-913): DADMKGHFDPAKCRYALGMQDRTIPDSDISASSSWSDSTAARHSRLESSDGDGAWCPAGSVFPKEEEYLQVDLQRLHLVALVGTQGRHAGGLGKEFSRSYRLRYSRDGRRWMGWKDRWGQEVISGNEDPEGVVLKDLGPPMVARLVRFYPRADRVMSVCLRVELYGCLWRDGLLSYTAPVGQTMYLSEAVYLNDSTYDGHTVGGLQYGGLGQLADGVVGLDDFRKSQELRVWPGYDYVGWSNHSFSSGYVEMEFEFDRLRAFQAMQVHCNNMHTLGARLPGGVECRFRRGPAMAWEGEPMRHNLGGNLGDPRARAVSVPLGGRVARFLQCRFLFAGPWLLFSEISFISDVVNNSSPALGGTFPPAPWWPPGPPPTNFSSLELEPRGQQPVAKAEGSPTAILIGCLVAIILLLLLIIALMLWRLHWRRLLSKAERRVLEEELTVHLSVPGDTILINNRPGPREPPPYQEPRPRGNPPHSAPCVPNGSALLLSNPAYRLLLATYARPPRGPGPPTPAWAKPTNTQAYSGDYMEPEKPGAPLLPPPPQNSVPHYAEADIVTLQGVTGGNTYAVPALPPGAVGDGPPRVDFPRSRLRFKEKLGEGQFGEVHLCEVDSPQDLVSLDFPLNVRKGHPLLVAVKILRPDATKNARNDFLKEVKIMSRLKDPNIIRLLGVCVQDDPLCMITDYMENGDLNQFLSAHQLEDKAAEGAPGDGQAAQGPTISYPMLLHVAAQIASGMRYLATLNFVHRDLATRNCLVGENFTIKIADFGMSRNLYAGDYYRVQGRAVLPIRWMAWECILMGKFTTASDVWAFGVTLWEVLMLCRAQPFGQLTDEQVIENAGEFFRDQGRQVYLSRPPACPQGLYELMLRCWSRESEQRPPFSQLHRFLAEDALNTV
Procedure: as §1, §2

Chain of DDR2 (Q16832 22-855): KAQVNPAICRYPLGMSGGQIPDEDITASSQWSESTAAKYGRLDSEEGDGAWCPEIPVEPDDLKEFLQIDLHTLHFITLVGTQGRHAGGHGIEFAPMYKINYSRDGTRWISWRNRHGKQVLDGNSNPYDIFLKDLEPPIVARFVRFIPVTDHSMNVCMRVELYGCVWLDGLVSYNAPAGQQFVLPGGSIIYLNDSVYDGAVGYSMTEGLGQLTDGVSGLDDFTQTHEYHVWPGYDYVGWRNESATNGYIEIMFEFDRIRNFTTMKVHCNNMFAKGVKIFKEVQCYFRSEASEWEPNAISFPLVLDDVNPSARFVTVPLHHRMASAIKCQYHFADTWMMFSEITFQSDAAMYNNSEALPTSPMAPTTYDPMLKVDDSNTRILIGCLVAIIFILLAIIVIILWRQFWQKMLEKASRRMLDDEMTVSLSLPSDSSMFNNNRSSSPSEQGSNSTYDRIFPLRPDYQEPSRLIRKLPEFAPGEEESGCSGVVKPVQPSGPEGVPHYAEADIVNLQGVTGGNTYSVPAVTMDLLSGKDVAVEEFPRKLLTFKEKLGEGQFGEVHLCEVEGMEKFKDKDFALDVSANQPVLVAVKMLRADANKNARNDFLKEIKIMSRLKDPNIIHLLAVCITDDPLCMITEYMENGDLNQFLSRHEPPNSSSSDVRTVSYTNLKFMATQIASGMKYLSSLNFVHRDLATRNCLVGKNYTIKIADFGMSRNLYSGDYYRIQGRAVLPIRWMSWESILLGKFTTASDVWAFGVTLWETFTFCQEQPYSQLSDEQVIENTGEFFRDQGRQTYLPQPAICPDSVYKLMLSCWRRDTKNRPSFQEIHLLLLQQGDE

| SMILES | Ki [1] [nM] | Ki [2] [nM] |
| --- | --- | --- |
| CNC(=O)c1cc(N2CC[C@@H](c3cc(C(=O)Nc4cccc(C(F)(F)F)c4)ccc3C)C2)ccn1 [Example 25, (S)-N-methyl-4-(3-(2-methyl-5-((3-(trifluoromethyl)phenyl)carbamoyl)phenyl)pyrrolidin-1-yl)picolinamide] | < 10 | < 10 |
| CNC(=O)c1cncc(N2CC[C@@H](c3cc(C(=O)Nc4cccc(C(F)(F)F)c4)ccc3C)C2)c1 [Example 26, (S)-N-methyl-5-(3-(2-methyl-5-((3-(trifluoromethyl)phenyl)carbamoyl)phenyl)pyrrolidin-1-yl)nicotinamide] | < 10 | < 10 |
| CNC(=O)c1cc(N2CC[C@H](c3cc(C(=O)Nc4cccc(C(F)(F)F)c4)ccc3C)C2)ccn1 [Example 27, (R)-N-methyl-4-(3-(2-methyl-5-((3-(trifluoromethyl)phenyl)carbamoyl)phenyl)pyrrolidin-1-yl)picolinamide] | 25 to 60 | < 10 |
| CNC(=O)c1cncc(N2CC[C@H](c3cc(C(=O)Nc4cccc(C(F)(F)F)c4)ccc3C)C2)c1 [Example 28, (R)-N-methyl-5-(3-(2-methyl-5-((3-(trifluoromethyl)phenyl)carbamoyl)phenyl)pyrrolidin-1-yl)nicotinamide] | 10 to 25 | < 10 |
| Cc1ccc(C(=O)Nc2cccc(C(F)(F)F)c2)cc1[C@@H]1CCN(c2cncc(C(=O)N3CCC(F)(F)CC3)c2)C1 [Example 32, (S)-3-(1-(5-(4,4-difluoropiperidine-1-carbonyl)pyridin-3-yl)pyrrolidin-3-yl)-4-methyl-N-(3-(trifluoromethyl)phenyl)benzamide] | > 60 | 25 to 60 |
| COCCNC(=O)c1cncc(N2CC[C@@H](c3cc(C(=O)Nc4cccc(C(F)(F)F)c4)ccc3C)C2)c1 [Example 35, (S)-N-(2-methoxyethyl)-5-(3-(2-methyl-5-((3-(trifluoromethyl)phenyl)carbamoyl)phenyl)pyrrolidin-1-yl)nicotinamide] | < 10 | < 10 |
| CO[C@@H]1CCCN(c2cncc(N3CC[C@@H](c4cc(C(=O)Nc5cccc(C(F)(F)F)c5)ccc4C)C3)c2)C1 [Example 36, 3-((S)-1-(5-((R)-3-methoxypiperidin-1-yl)pyridin-3-yl)pyrrolidin-3-yl)-4-methyl-N-(3-(trifluoromethyl)phenyl)benzamide] | 25 to 60 | < 10 |
| Cc1ccc(C(=O)Nc2cccc(C(F)(F)F)c2)cc1[C@@H]1CCN(c2cncc(C(F)F)c2)C1 [Example 38, (S)-3-(1-(5-(difluoromethyl)pyridin-3-yl)pyrrolidin-3-yl)-4-methyl-N-(3-(trifluoromethyl)phenyl)benzamide] | 10 to 25 | < 10 |
| Cc1ccc(C(=O)Nc2cccc(C(F)(F)F)c2)cc1[C@@H]1CCN(c2cncc(N3CCC4(COC4)C3)c2)C1 [Example 39, (S)-3-(1-(5-(2-oxa-6-azaspiro[3.4]octan-6-yl)pyridin-3-yl)pyrrolidin-3-yl)-4-methyl-N-(3-(trifluoromethyl)phenyl)benzamide] | > 60 | 10 to 25 |
| CC(=O)Nc1cncc(N2CC[C@@H](c3cc(C(=O)Nc4cccc(C(F)(F)F)c4)ccc3C)C2)c1 [Example 40, (S)-3-(1-(5-acetamidopyridin-3-yl)pyrrolidin-3-yl)-4-methyl-N-(3-(trifluoromethyl)phenyl)benzamide] | < 10 | < 10 |
| Cc1ccc(C(=O)Nc2cccc(C(F)(F)F)c2)cc1[C@@H]1CCN(c2ccnc3[nH]ccc23)C1 [Example 42, (S)-3-(1-(1H-pyrrolo[2,3-b]pyridin-4-yl)pyrrolidin-3-yl)-4-methyl-N-(3-(trifluoromethyl)phenyl)benzamide] | 25 to 60 | 10 to 25 |
| COCCn1cc(Nc2cncc(N3CC[C@@H](c4cc(C(=O)Nc5cccc(C(F)(F)F)c5)ccc4C)C3)c2)cn1 [Example 46, (S)-3-(1-(5-((1-(2-methoxyethyl)-1H-pyrazol-4-yl)amino)pyridin-3-yl)pyrrolidin-3-yl)-4-methyl-N-(3-(trifluoromethyl)phenyl)benzamide] | 10 to 25 | < 10 |

Results, then the compound that gave them:

| Ki [1] [nM] | Ki [2] [nM] | SMILES |
| --- | --- | --- |
| 10 to 25 | < 10 | COCCOc1cncc(N2CC[C@@H](c3cc(C(=O)Nc4cccc(C(F)(F)F)c4)ccc3C)C2)c1 [Example 30, (S)-3-(1-(5-(2-methoxyethoxy)pyridin-3-yl)pyrrolidin-3-yl)-4-methyl-N-(3-(trifluoromethyl)phenyl)benzamide] |
| > 60 | < 10 | Cc1ccc(C(=O)Nc2cccc(C(F)(F)F)c2)cc1[C@@H]1CCN(c2cncc(N3CCC(F)(F)CC3)c2)C1 [Example 31, (S)-3-(1-(5-(4,4-difluoropiperidin-1-yl)pyridin-3-yl)pyrrolidin-3-yl)-4-methyl-N-(3-(trifluoromethyl)phenyl)benzamide] |
| 10 to 25 | < 10 | Cc1ccc(C(=O)Nc2cccc(C(F)(F)F)c2)cc1[C@@H]1CCN(c2cncc(C(=O)N3CCOCC3)c2)C1 [Example 33, (S)-4-methyl-3-(1-(5-(morpholine-4-carbonyl)pyridin-3-yl)pyrrolidin-3-yl)-N-(3-(trifluoromethyl)phenyl)benzamide] |
| < 10 | < 10 | Cc1ccc(C(=O)Nc2cccc(C(F)(F)F)c2)cc1[C@@H]1CCN(c2cncc(C(=O)NCCN(C)C)c2)C1 [Example 34, (S)-N-(2-(dimethylamino)ethyl)-5-(3-(2-methyl-5-((3-(trifluoromethyl)phenyl)carbamoyl)phenyl)pyrrolidin-1-yl)nicotinamide] |
| 10 to 25 | < 10 | Cc1ccc(C(=O)Nc2cccc(C(F)(F)F)c2)cc1[C@@H]1CCN(c2cncc(N3CC4(COC4)C3)c2)C1 [Example 37, (S)-3-(1-(5-(2-oxa-6-azaspiro[3.3]heptan-6-yl)pyridin-3-yl)pyrrolidin-3-yl)-4-methyl-N-(3-(trifluoromethyl)phenyl)benzamide] |
| < 10 | < 10 | CC(=O)Nc1cc(N2CC[C@@H](c3cc(C(=O)Nc4cccc(C(F)(F)F)c4)ccc3C)C2)ccn1 [Example 41, (S)-3-(1-(2-acetamidopyridin-4-yl)pyrrolidin-3-yl)-4-methyl-N-(3-(trifluoromethyl)phenyl)benzamide] |
| 25 to 60 | 25 to 60 | Cc1ccc(C(=O)Nc2cccc(C(F)(F)F)c2)cc1[C@@H]1CCN(c2cnc3ccnn3c2)C1 [Example 43, (S)-4-methyl-3-(1-(pyrazolo[1,5-a]pyrimidin-6-yl)pyrrolidin-3-yl)-N-(3-(trifluoromethyl)phenyl)benzamide] |
| 25 to 60 | 10 to 25 | Cc1ccc(C(=O)Nc2cccc(C(F)(F)F)c2)cc1[C@@H]1CCN(c2ccc(Nc3cnn(C)c3)nc2)C1 [Example 44, (S)-4-methyl-3-(1-(6-((1-methyl-1H-pyrazol-4-yl)amino)pyridin-3-yl)pyrrolidin-3-yl)-N-(3-(trifluoromethyl)phenyl)benzamide] |
| 10 to 25 | < 10 | Cc1ccc(C(=O)Nc2cccc(C(F)(F)F)c2)cc1[C@@H]1CCN(c2cncc(Nc3cnn(C)c3)c2)C1 [Example 45, (S)-4-methyl-3-(1-(5-((1-methyl-1H-pyrazol-4-yl)amino)pyridin-3-yl)pyrrolidin-3-yl)-N-(3-(trifluoromethyl)phenyl)benzamide] |
